Source: article PMC11165489, “Polyketide Trimming Shapes Dihydroxynaphthalene‐Melanin and Anthraquinone Pigments” (Advanced Science, 2024)

Tests used:
Type in all cases: binding
[1] = target: T1, Wdyg1p (Exophiala dermatitidis, UniProt Q6BCB5); experiment: X-ray crystal structure
T1 construct: gene yg1; homodimer; N-domain residues 1-139, C-domain residues 144-393; active-site Ser256, His378; construct and host only in supplement

[2] = target: T2, Afyg1p (Aspergillus fumigatus, UniProt Q4WZB3); experiment: X-ray crystal structure; conditions: reaction product in specificity pocket; 1.7 A
T2 construct: gene ayg1; homodimer; active-site Ser257, His380, Asp352; construct and host only in supplement
T2 sequence (Q4WZB3 2-406): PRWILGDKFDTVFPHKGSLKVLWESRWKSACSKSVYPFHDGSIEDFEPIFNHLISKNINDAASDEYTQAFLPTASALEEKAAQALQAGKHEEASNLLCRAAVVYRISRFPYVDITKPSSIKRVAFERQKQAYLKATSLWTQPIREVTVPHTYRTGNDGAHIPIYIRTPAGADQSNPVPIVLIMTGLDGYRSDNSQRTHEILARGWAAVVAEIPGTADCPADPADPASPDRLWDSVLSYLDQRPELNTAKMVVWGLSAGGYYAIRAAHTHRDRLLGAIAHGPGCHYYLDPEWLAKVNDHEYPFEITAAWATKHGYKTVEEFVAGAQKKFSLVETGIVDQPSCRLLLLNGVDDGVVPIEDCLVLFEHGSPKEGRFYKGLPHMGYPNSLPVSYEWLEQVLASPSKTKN

[3] = target: T3, PlAntI (Photorhabdus laumondii, UniProt Q7MZT8); experiment: X-ray crystal structure; mass spectrometry; conditions: covalent; Ser245 converted to dehydroalanine, inhibitor itself eliminated; 1.8 A
T3 construct: gene plu4186; crystallised enzyme; catalytic Ser245, His355, Asp326; construct and host only in supplement
T3 sequence (Q7MZT8 1-384): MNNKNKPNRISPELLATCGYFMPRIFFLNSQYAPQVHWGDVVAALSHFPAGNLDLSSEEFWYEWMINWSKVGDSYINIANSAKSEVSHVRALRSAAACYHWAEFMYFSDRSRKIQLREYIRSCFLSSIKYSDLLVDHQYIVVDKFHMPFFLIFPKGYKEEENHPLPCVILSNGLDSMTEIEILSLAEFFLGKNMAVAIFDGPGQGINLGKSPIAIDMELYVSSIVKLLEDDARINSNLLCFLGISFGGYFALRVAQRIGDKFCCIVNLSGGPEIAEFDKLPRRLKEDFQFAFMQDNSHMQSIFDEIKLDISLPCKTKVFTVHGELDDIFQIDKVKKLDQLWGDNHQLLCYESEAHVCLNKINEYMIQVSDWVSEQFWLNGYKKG

T1 sequence (Q6BCB5 entry or part of it): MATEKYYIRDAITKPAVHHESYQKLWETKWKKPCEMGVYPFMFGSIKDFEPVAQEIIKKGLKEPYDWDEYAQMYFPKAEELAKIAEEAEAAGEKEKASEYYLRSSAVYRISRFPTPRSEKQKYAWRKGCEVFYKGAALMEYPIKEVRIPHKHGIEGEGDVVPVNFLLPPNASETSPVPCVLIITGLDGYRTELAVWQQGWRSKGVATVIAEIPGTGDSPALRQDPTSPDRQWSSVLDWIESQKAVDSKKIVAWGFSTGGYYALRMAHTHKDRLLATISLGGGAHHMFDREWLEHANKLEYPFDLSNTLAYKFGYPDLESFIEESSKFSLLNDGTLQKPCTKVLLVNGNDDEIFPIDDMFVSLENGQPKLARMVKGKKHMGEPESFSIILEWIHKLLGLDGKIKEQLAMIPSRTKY

| Compound | X-ray crystal structure ([1]; reaction product in specificity pocket, 1.95 A) | X-ray crystal structure [2] | X-ray crystal structure; mass spectrometry [3] | X-ray crystal structure ([1]; covalent, Ser256 converted to dehydroalanine, inhibitor itself eliminated, 1.85 A) |
| --- | --- | --- | --- | --- |
| Oc1cc(O)c2c(O)cc(O)cc2c1 [THN, 1,3,6,8‐tetrahydroxynaphthalene] | Wdyg1p crystal structure in complex with its product, THN (Wdyg1p:THN, PDB ID: 8QD9 | the structure of Afyg1p in complex with its reaction product THN was analyzed |  |  |
| O=S(=O)(F)c1ccccc1 [PSF, phenyl‐SF] |  |  | treatment of PlAntI with PMSF (*) or PSF (^#) appears to also introduce a DHA | treatment of Wdyg1p with PMSF (*) or PSF (^#) leads to the β‐elimination mediated conversion |
